Source: patent US20210283211A1, “COMPOSITIONS AND METHODS OF ALLEVIATING RESISTANCE TO CHEMOTHERAPY” (CITY OF HOPE, priority 2019, published 2021)
“Also recorded” adds a separate entry of the source.

Assays:
H358 cells = experiment: Cell-based rescreen of top virtual-screen hits, IC50 determination; settings: Homo sapiens, NCI-H358, 0.1 μM to 10 μM, 72 hours
Experimental: (§1) Cell viability assay: Cell Counting Kit-8 (CCK-8) was purchased from Dojindo Molecular Technologies (Rockville, Md., USA). Cells were seeded on a 96-well plate and allowed to adhere in complete medium for 24 hours. Test compounds were added to 100 μl of medium at the indicated concentrations for 72 hours. Ten μl of the CCK-8 reagent were added to each well and absorbance at 450 nm was measured using a Tecan Spark 10M multimode microplate reader.
A virtual screen of a library of 1440 FDA-approved drugs using binding pockets in the N-terminal domain of PXN (FIG. 9H) identified several putative hits. The top 40 hits were then rescreened employing a cell-based assay to determine their efficacy using H358 cells.

H2009 cells [1] = experiment: cells; type: cell-based; settings: Homo sapiens
Experimental: as §1
(§2) Then a sublethal dose was used to determine the effect of these compounds on ITGB4 and PXN expression and caspase activity (FIG. 9I). […] These eleven compounds were further screened in the cisplatin-resistant cell line H2009. […] Further, carfilzomib was tested in another cisplatin-resistant cell line H1993.

H2009 cells [2] = experiment: Scratch wound healing assay; type: cell-based, human
Experimental: Scratch wound healing assay. Cells were seeded on a 96-well Image Lock (Essen BioScience, Ann Arbor, Mich., USA) plate to reach 90% confluence by the next day. After cell adherence, 96 uniform wounds were created simultaneously using the WoundMaker (Essen BioScience) tool. Cells were washed once with serum-free medium and replenished with complete medium. To monitor wound healing, the plate was placed in the IncuCyte S3 Live-Cell Analysis System (Essen BioScience) and images were acquired every hour. Data analysis was generated by the IncuCyte software using a set confluence mask to measure relative wound density over time.
To discern the effect of knocking down ITGB4 on cell migration, H1993 and H2009 cells were transfected with the control or ITGB4-specific siRNA in 6-well plates and 12 hours post transfection, the cells were trypsinized and reseeded at high density in a 96-well plate. […] While both cell lines transfected with the control siRNA achieved 100% confluency of the wound within 48 hours, H1993 and 2009 cells in which ITGB4 was knocked down reached ˜60% and ˜80% confluency, respectively; neither cell line reached 100% confluency even after 96 h (FIG. 3F). Next the rate of wound closure was estimated. The rate was determined by dividing initial wound width by the time taken to close the wound. […] Similarly, in the case of the H2009 cells, the wound width closure rate dropped from 22 μm/h to about 18 μm/h (FIG. 3G). […] Additionally, up regulation of expression of other integrin β forms in response to ITGB4 knockdown was checked and an increase in the expression of ITGB1, ITGB2, and ITGB3 at mRNA level was found (FIG. 3I). The effect of ITGB3 silencing in the ITGB4 knocked down cells was further tested but no significant difference in their proliferation was found (FIG. 3J).

[3] = tested on: patient-derived organoids (lung cancer); experiment: Patient tumor tissue-derived organoid assay (area, caspase activity); type: cell-based, human
Experimental: Next, drug efficacy in patient tumor tissue-derived organoids was determined. Approximately 5000 cells/sample from 2 surgical samples were seeded in an ultra-low attachment plate and incubated at 37° C. […] In one of the patient-derived organoids, cisplatin treatment alone decreased spheroid area and increased apoptosis as measured by green intensity (FIG. 11D). […] Indeed, by 72 hours carfilzomib at a concentration of 2.5 μM induced 5-fold increase in caspase activity compared to cisplatin alone but there was not much change in the spheroid area (FIGS. 11E-11F). Thus, no additive effect was apparent in this patient sample. […] The efficacy of ITGB4 antibody in disrupting organoid growth and inducing apoptosis was also tested.

[4] = tested on: ITGB4, PXN, FAK, MET, γH2AX, cleaved PARP in H1993 cells; experiment: Immunoblot; type: cell-based, human; settings: 50-200 nM carfilzomib
Experimental: (§3) West blotting: Cell lysates were prepared with 1×RIPA buffer (MilliporeSigma) and denatured in 1× reducing sample buffer at 95° C. for 5 minutes. Protein samples (15 μg) were run on 4-15% TGX gels (Bio-Rad, Hercules, Calif., USA) and transferred onto nitrocellulose membranes (Bio-Rad). Blots were blocked with 5% non-fat milk in TBS-T for 1 hour at room temperature and probed with primary antibody diluted in 2.5% BSA in TBS-T overnight at 4° C. After three washes with TBS-T, blots were incubated with HRP-conjugated secondary antibodies for 2 hours at room temperature. After three more washes, bands of interest were visualized via chemiluminescence using Western Bright ECL HRP substrate (Advansta, Menlo Park, Calif., USA) and imaged with the ChemiDoc MP imager (Bio-Rad).
as §2

[5] = tested on: ITGB4, PXN, FAK, p27, phospho-Rb, γH2AX, cleaved PARP in H2009 cells; experiment: Immunoblot; type: cell-based, human; settings: sublethal dose
Experimental: as §3, §2

[6] = tested on: ITGB4, PXN, USP1, VDAC1, CD133 in patient-derived organoids; experiment: Immunoblot of treated patient-derived organoids; type: cell-based, human; settings: 48 hours, printed 2.5 mM and 5 mM

## CC(C)C[C@H](NC(=O)[C@H](CCc1ccccc1)NC(=O)CN1CCOCC1)C(=O)N[C@@H](Cc1ccccc1)C(=O)N[C@@H](CC(C)C)C(=O)[C@@]1(C)CO1 [Carfilzomib]
H358 cells
  IC50: 0.8 nM
H2009 cells [1]; NCI-H2009, 72 h, read-out: reduction in the cell viability
  cytotoxicity at 0.08 µM: 80%
H2009 cells [1]; NCI-H2009, H2009 cells, increasing dose, 72 hours
  IC50: 418 nM
H2009 cells [2]; 200 nM, untreated >90%
  wound confluency: 79%
H2009 cells [2]; sublethal dose (carfilzomib 50-200 nM)
  cell migration / wound healing: significant inhibition of wound healing and reduction in wound closure rate; also recorded: dose-dependent inhibition of cell migration
[3]; patient LCSC2
  spheroid area: decreased the spheroid area
[3]; patient LCSC2, both drugs combined
  caspase activity, combination with cisplatin: enhanced
[3]; patient LCSC4, carfilzomib and cisplatin combined
  apoptosis, combination with cisplatin: did not have an additive effect
[3]; patient LCSC4, cisplatin 5 μM alone, carfilzomib 2.5 μM alone
  organoid size: decreased the size of the organoid
[3]; patient LCSC4 organoids, 2.5 μM, by 72 hours
  induction of apoptosis (caspase activity) compared to cisplatin alone: 5 fold
[3]; second patient (LCSC2) organoids
  increase in apoptosis (caspase activity): ~50 fold
[4]
  protein expression by immunoblot: reduction in ITGB4 expression and increase in cleaved PARP and γH2AX
[5]
  protein expression by immunoblot: reduced ITGB4 and PXN expression; also recorded: reduced expression of ITGB4 and phospho-Rb (S807/811) and increased expression of p27, γH2AX, and cleaved PARP
[6]
  protein expression by immunoblot: decrease in the expression of ITGB4, USP1, PXN and VDAC1; also recorded: decreased expression of ITGB4, PXN, USP1, VDAC1 and CD133
